Reference: US5948796A, “Benzo[B]thiophene compounds, intermediates, formulations, and methods” (Eli Lilly and Company, priority 1997, dated 1999)
Counter-ions that a name gives are not always drawn.

Assays:
[1] = system: ovariectomized (OVX) female Sprague Dawley rats, uterus; assay: Uterine weight in ovariectomized rats (post-menopausal model); format: in vivo; details: daily for 4 days, * p < 0.05
Procedure: (§1) In the examples illustrating the methods, a post-menopausal model was used in which effects of different treatments upon circulating lipids were determined.
(§2) Seventy-five day old female Sprague Dawley rats (weight range of 200 to 225 g) are obtained from Charles River Laboratories (Portage, Mich.). The animals are either bilaterally ovariectomized (OVX) or exposed to a Sham surgical procedure at Charles River Laboratories, and then shipped after one week. Upon arrival, they are housed in metal hanging cages in groups of 3 or 4 per cage and have ad libitum access to food (calcium content approximately 0.5%) and water for one week. Room temperature is maintained at 22.2°±1.7° C. with a minimum relative humidity of 40%. The photoperiod in the room is 12 hours light and 12 hours dark.
(§3) Dosing Regimen Tissue Collection. After a one week acclimation period (therefore, two weeks post-OVX) daily dosing with test compound is initiated. 17α-ethynyl estradiol or the test compound are given orally, unless otherwise stated, as a suspension in 1% carboxymethylcellulose or dissolved in 20% cyclodextrin. Animals are dosed daily for 4 days. Following the dosing regimen, animals are weighed and anesthetized with a ketamine: Xylazine (2:1, V:V) mixture and a blood sample is collected by cardiac puncture. The animals are then sacrificed by asphyxiation with CO2, the uterus is removed through a midline incision, and a wet uterine weight is determined.
(§4) In accordance with the above procedures, compounds of the present invention and ethynyl estradiol (EE2) in 20% hydroxypropyl β-cyclodextrin are orally administered to test animals.

Eosinophil peroxidase = assay: Uterine Eosinophil Peroxidase (EPO) Assay in ovariectomized rats; format: in vivo, female Sprague Dawley rats; details: daily for 4 days, OVX rats, * p < 0.05
Procedure: as §1, §2, §3
Uterine Eosinophil Peroxidase (EPO) Assay. Uteri are kept at 4° C. until time of enzymatic analysis. The uteri are then homogenized in 50 volumes of 50 mM Tris buffer (pH-8.0) containing 0.005% Triton X-100. Upon addition of 0.01% hydrogen peroxide and 10 mM O-phenylenediamine (final concentrations) in Tris buffer, increase in absorbance is monitored for one minute at 450 nm. The presence of eosonophils in the uterus is an indication of estrogenic activity of a compound. The maximal velocity of a 15 second interval is determined over the initial, linear portion of the reaction curve.
as §4

serum cholesterol = assay: Cholesterol Analysis (serum cholesterol in ovariectomized rats); format: in vivo, female Sprague Dawley rats; details: daily for 4 days, OVX rats, * p < 0.05
Procedure: as §1, §2, §3
Cholesterol Analysis. Blood samples are allowed to clot at ambient temperature for 2 hours, and serum is obtained following centrifugation for 10 minutes at 3000 rpm. Serum cholesterol is determined using a Boehringer Mannheim Diagnostics high performance cholesterol assay. Briefly, the cholesterol is oxidized to cholest-4-en-3-one and hydrogen peroxide. The hydrogen peroxide is then reacted with phenol and 4-aminophenazone in the presence of peroxidase to produce a p-quinone imine dye, which is read spectrophotemetrically at 500 nm. Cholesterol concentration is then calculated against a standard curve.
as §4

[2] = system: MCF-7 breast adenocarcinoma cells; assay: MCF-7 Proliferation Assay; format: cell-based; details: Homo sapiens, MCF7; MCF-7 cells; 48 hours; tritiated thymidine pulse 4 hours
Procedure: As evidence of the current invention treat estrogen dependent cancer, the following assay was performed.
MCF-7 Proliferation Assay
MCF-7 breast adenocarcinoma cells (ATCC HTB 22) were maintained in MEM (minimal essential medium, phenol red-free, Sigma, St. Louis, Mo.) supplemented with 10% fetal bovine serum (FBS) (V/V), L-glutamine (2 mM), sodium pyruvate (1 mM), HEPES {(N-[2-hydroxyethyl]piperazine-N'-[2-ethanesulfonic acid]10 mM}, non-essential amino acids and bovine insulin (1 ug/mL) (maintenance medium). Ten days prior to assay, MCF-7 cells were switched to maintenance medium supplemented with 10% dextran coated charcoal stripped fetal bovine serum (DCC-FBS) assay medium) in place of 10% FBS to deplete internal stores of steroids. MCF-7 cells were removed from maintenance flasks using cell dissociation medium [Ca++/Mg++ free HBSS (phenol red-free) supplemented with 10 mM HEPES and 2 mM EDTA]. Cells were washed twice with assay medium and adjusted to 80,000 cells/mL. Approximately […] (8,000 cells) were added to flat-bottom microculture wells (Costar 3596) and incubated at 37° C. in a 5% CO2 humidified incubator for 48 hours to allow for cell adherence and equilibration after transfer. […] Samples were counted by liquid scintillation using a Wallac BetaPlace β counter. […]

| IC50 [2] [nM] | SMILES | Uterine Wt. (% Inc.), % increase versus the ovariectomized controls ([1]; dose printed "0." mg/kg PO) [%] | Uterine EPO (Vmax) (Eosinophil peroxidase; dose printed "0." mg/kg PO) | Uterine Wt. (% Inc.), % increase versus the ovariectomized controls ([1]; 0.1 mg/kg PO) [%] | Uterine Wt. (% Inc.), % increase versus the ovariectomized controls ([1]; 1 mg/kg PO) [%] | Uterine Wt. (% Inc.), % increase versus the ovariectomized controls ([1]; 10 mg/kg PO) [%] | Serum Cholesterol (% Dec.), decrease versus ovariectomized controls (serum cholesterol; 0.1 mg/kg PO) [%] | Serum Cholesterol (% Dec.), decrease versus ovariectomized controls (serum cholesterol; 1 mg/kg PO) [%] | Serum Cholesterol (% Dec.), decrease versus ovariectomized controls (serum cholesterol; 10 mg/kg PO) [%] | Uterine EPO (Vmax) (Eosinophil peroxidase; 0.1 mg/kg PO) | Uterine EPO (Vmax) (Eosinophil peroxidase; 1 mg/kg PO) | Uterine EPO (Vmax) (Eosinophil peroxidase; 10 mg/kg PO) |
| --- | --- | --- | --- | --- | --- | --- | --- | --- | --- | --- | --- | --- |
|  | C#C[C@]1(O)CC[C@H]2[C@@H]3CCc4cc(O)ccc4[C@H]3CC[C@@]21C [EE2, 17α-ethynyl estradiol, reference compound] | 171.2 | 142.4 |  |  |  |  |  |  |  |  |  |
| 500 | COc1ccc(-c2sc3cc(C)ccc3c2C(=O)c2ccc(OCCN3CCCCC3)cc2)cc1 [Example 1, [2-(4-Methoxyphenyl)-6-methylbenzo[b]thien-3-yl}[4-[2-(1-piperdinyl)ethoxy]phenyl]methanone Hydrochloride] |  |  | -11.4 | -4.6 | 2.1 | -20.3 | 17.2 | 34.8 | 1.4 | 1.6 | 5.2 |
| 100 | Cc1ccc2c(C(=O)c3ccc(OCCN4CCCCC4)cc3)c(-c3ccc(O)cc3)sc2c1 [Example 2, [2-(4-Hydroxyphenyl)-6-methylbenzo[b]thien-3-yl}[4-[2-(1-piperdinyl)ethoxy]phenyl]methanone Hydrochloride] |  |  | -9.0 | 23.9 | 29.0 | 16.9 | 33.8 | 21.6 | 2.0 | 2.8 | 2.9 |
